Tests used:
Adenosine receptor A2b = biological target: T1, Adenosine receptor A2b (Homo sapiens, UniProt P29275); assay: Displacement of [3H]PSB-603 from human recombinant adenosine A2B receptor expressed in CHO cells after 75 mins by liquid scintillation counting analysis
T1 sequence (P29275 whole entry): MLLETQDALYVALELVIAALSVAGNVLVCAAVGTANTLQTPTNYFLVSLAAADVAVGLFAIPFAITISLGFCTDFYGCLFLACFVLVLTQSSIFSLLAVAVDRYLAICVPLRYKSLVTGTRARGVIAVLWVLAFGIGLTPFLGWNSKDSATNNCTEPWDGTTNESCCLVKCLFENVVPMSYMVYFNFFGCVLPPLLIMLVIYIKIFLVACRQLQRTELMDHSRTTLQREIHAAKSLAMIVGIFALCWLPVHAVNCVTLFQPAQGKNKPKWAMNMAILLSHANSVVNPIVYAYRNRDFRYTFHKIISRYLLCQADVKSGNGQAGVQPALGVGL

Adenosine receptor A2a = Adenosine receptor A2a (Rattus norvegicus, UniProt P30543); assay: Displacement of [3H]CGS21680 from adenosine A2A receptor in rat brain striatal membrane after 60 mins by liquid scintillation counting analysis
Sequence of Adenosine receptor A2a (P30543 whole entry): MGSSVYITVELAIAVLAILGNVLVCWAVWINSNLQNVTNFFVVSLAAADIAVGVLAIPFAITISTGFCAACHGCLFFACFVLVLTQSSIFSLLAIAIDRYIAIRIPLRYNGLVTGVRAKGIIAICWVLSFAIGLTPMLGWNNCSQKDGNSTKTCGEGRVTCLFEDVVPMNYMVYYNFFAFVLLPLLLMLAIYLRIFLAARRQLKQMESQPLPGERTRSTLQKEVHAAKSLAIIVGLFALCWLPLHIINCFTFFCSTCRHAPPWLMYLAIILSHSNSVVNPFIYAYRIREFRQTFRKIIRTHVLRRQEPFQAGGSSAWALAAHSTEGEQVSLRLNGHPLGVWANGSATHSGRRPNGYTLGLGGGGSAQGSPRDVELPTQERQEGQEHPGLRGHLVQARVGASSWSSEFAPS

Ki (Adenosine receptor A2b) [µM] | Ki (Adenosine receptor A2a) [µM] | SMILES
> 10 | > 1 | CN(NC(CO)C(=O)[C@@H](O)[C@@H](O)CO)c1nc(N)c2ncn([C@@H]3O[C@H](CO)[C@@H](O)[C@H]3O)c2n1 (some centres not stated)
> 10 | > 1 | CN(NCC(=O)[C@@H](O)[C@@H](O)CO)c1nc(N)c2ncn([C@@H]3O[C@H](CO)[C@@H](O)[C@H]3O)c2n1
> 10 | > 1 | Nc1nc(NNC(CO)C(=O)[C@@H](O)[C@@H](O)CO)nc2c1ncn2[C@@H]1O[C@H](CO)[C@@H](O)[C@H]1O (some centres not stated)

Continued, compound first:

SMILES | Ki (Adenosine receptor A2b) [µM] | Ki (Adenosine receptor A2a) [µM]
CN(NCC(=O)[C@H](O)[C@@H](O)[C@@H](O)CO)c1nc(N)c2ncn([C@@H]3O[C@H](CO)[C@@H](O)[C@H]3O)c2n1 | > 10 | > 1
CN(NCC(=O)[C@@H](O)[C@@H](O)[C@H](O)CO)c1nc(N)c2ncn([C@@H]3O[C@H](CO)[C@@H](O)[C@H]3O)c2n1 | > 10 | > 1
Nc1nc(NNCC(=O)[C@@H](O)[C@@H](O)CO)nc2c1ncn2[C@@H]1O[C@H](CO)[C@@H](O)[C@H]1O | > 10 | > 1
